Here are results for nine compounds from patent publication US20120122860A1, “SOLID FORMS OF SULFONAMIDES AND AMINO ACIDS” (Plexxikon, Inc., priority 2009, published 2012).

Series [1] in a line: Dog PK study of solid forms and formulations. The format is in vivo, Beagle dogs. The protocol: Pharmacokinetic properties of various compositions prepared from the complexes may be assessed in male Sprague Dawley rats or male Beagle dogs, and compared to the properties of the free base compound. Rats are dosed daily with compound either by IV injections via surgically implanted jugular catheters or by oral gavage (PO). Each compound is prepared as a 20 mg/mL stock solution in dimethyl sulfoxide, which is further diluted to provide the dosing stock at the desired concentration for the IV or PO formulations. For IV dosing, the dosing stock is diluted into a 1:1:8 mixture of Solutol®:ethanol:water. For PO dosing, the dosing stock is diluted into 1% methylcellulose. In a cassette format, 5 compounds are diluted to 0.5 mg/mL each for IV dosing and 0.4 mg/mL each for PO dosing and dosed at 1 mg/kg (2 mL/kg) or 2 mg/kg (5 mL/kg), respectively. For IV dosed animals, tail vein blood samples are collected with lithium heparin anticoagulant at 5, 15, 30, and 60 minutes and 4, 8, and 24 hours post dosing each day. For PO dosed animals, tail vein blood samples are collected with lithium heparin anticoagulant at 30 minutes, 1, 2, 4, 8 and 24 hours post dosing each day. Dogs are dosed daily by oral capsules in a suitable formulation at 50 mg/mL. Cephalic vein blood samples are collected with lithium heparin anticoagulant at 30 minutes, 1, 2, 4, 8 and 24 hours post dosing each day. All samples are processed to plasma and frozen for later analysis of each compound by LC/MS/MS. Plasma levels as a function of time are plotted to assess the AUC (ng*hr/mL).
The arginine complex of N-[3-(5-chloro-1H-pyrrolo[2,3-b]pyridine-3-carbonyl)-2,4-difluoro-phenyl]-4-trifluoromethyl-benzenesulfonamide P-1021 was analyzed in a number of dog PK studies following the above or similar protocols. These were done primarily at Bridge Laboratories, Beijing, China, with one study done at Seventh Wave Laboratories LLC, Chesterfield, Mo. Plasma samples were analyzed to determine the plasma concentration (PPD Development, Madison, Wis.) at each time point from which the Cmax and AUC∞ were determined. In some instances, the materials are combined in the solvents indicated, and the solvent is removed by evaporation, or by spray drying where indicated. In these tables, unless indicated otherwise, the dose is mg/dog, and the Cmax/dose ((ng/mL)/(mg/kg)) and the AUC∞/dose ((ng*hr/mL)/(mg/kg)) are calculated assuming a 10 kg weight for the dogs.
This study was done at Seventh Wave, containers were provided with 13.259 g, 39.776 g or 66.301 g of this formulation and suspended in 360 mL of 1.5% Polysorbate 20 vehicle and dosed by oral gavage.
N-[3-(5-chloro-1H-pyrrolo[2,3-b]pyridine-3-carbonyl)-2,4-difluoro-phenyl]-4-trifluoromethyl-benzenesulfonamide P-1021 was analyzed in a dog PK study wherein the arginine complex of N-[3-(5-cyano-1H-pyrrolo[2,3-b]pyridine-3-carbonyl)-2,4-difluoro-phenyl]-4-trifluoromethyl-benzenesulfonamide P-1092 was also assessed.

The target of the next series is B-Raf (Homo sapiens, UniProt P15056). Nature of the series: Kinase activity assay, B-Raf. The format is biochemical. The following applies: read-out: activity toward kinase B-Raf, IC50.
For a further series, the target named is B-Raf V600E (Homo sapiens, UniProt P15056, V600E). As to the kind of experiment: Kinase activity assay, B-Raf V600E. Type of series: biochemical. The following applies: read-out: activity toward kinase B-Raf V600E, IC50.
For another series, the target named is Btk (Homo sapiens, UniProt Q06187). Nature of the series: Kinase activity assay, Btk.
Btk, sequence (Q06187 whole entry): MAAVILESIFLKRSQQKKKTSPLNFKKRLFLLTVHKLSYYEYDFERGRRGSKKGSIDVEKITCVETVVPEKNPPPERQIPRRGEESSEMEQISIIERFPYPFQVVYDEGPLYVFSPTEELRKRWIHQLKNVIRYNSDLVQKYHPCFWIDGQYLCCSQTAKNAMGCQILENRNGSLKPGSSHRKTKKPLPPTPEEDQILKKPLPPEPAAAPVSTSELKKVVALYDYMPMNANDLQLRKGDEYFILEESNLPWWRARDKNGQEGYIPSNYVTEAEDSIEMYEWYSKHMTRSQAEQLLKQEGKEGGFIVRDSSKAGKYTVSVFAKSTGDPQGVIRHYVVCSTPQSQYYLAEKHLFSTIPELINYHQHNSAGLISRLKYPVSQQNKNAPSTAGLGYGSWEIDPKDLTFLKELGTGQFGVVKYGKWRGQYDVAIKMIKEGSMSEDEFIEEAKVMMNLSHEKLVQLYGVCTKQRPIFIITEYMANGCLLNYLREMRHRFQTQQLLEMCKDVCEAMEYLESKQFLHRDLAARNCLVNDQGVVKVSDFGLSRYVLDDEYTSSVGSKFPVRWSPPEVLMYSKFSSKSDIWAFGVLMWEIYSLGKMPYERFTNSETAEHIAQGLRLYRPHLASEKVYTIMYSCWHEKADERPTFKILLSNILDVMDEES
In another series the target is Fms (Homo sapiens, UniProt P07333). As to the kind of experiment: Kinase activity assay, Fms.
Fms, sequence (P07333 20-972): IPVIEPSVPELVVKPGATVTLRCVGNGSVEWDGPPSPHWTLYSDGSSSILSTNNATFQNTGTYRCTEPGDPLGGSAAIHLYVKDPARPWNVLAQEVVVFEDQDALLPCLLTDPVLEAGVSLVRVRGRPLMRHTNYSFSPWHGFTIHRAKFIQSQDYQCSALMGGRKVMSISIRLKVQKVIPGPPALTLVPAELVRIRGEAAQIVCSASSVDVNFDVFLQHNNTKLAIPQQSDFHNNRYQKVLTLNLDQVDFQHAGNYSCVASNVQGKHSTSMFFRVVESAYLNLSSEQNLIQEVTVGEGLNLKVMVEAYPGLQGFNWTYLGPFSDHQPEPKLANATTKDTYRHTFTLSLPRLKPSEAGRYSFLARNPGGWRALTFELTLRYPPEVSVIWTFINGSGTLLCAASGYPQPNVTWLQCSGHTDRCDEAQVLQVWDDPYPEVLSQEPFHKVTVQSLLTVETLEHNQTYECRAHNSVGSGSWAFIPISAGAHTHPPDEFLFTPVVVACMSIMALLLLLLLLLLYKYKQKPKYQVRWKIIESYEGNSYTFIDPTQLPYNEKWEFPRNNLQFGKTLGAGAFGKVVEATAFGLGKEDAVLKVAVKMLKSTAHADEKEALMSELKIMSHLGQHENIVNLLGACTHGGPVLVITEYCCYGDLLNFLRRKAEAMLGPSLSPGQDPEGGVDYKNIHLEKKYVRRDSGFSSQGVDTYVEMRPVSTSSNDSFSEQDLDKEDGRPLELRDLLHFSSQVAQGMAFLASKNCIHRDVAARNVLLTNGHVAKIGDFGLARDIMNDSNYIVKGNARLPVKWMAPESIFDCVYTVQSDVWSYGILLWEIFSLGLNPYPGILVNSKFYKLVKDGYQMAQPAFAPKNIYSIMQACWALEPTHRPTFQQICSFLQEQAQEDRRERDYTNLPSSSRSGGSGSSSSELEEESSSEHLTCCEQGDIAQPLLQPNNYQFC
The target of another series is Kdr (Homo sapiens, UniProt P35968). As to the kind of experiment: Kinase activity assay, Kdr.
Kdr, sequence (P35968 20-1356): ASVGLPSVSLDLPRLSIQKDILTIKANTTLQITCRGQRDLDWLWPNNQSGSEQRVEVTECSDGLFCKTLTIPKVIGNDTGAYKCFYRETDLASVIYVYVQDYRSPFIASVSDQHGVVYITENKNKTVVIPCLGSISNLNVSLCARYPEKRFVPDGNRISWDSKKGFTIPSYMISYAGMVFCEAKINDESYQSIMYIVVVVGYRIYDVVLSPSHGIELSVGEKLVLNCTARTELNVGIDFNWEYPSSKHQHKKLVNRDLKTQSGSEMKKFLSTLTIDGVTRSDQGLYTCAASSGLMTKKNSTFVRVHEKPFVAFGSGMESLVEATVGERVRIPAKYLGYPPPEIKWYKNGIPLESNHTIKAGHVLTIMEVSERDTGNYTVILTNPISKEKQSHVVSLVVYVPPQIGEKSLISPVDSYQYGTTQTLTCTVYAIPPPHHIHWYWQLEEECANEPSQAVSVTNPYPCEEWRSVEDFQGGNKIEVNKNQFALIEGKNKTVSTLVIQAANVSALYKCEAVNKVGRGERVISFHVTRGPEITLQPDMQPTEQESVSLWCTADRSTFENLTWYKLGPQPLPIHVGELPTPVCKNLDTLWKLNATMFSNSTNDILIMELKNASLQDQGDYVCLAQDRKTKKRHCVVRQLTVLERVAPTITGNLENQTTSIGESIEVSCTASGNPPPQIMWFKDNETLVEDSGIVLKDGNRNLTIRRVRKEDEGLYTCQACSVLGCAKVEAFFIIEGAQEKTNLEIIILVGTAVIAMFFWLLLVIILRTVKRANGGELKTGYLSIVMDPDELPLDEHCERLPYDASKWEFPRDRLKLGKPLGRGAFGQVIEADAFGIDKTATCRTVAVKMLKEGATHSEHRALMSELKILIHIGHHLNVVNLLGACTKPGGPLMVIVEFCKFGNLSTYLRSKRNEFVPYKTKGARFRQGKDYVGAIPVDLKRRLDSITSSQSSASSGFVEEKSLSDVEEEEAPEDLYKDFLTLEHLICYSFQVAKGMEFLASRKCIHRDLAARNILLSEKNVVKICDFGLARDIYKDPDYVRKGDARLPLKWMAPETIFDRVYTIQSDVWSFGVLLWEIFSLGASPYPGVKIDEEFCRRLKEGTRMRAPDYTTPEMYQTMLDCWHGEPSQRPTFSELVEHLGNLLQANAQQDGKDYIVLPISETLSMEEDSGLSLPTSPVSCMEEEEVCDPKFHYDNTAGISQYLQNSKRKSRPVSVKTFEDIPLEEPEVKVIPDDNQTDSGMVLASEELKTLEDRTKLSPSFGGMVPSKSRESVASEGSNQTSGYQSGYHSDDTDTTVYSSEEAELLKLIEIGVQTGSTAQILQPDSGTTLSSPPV
For another series, the target named is Kit (Homo sapiens, UniProt P10721). Nature of the series: Kinase activity assay, Kit.
Kit, sequence (P10721 26-976): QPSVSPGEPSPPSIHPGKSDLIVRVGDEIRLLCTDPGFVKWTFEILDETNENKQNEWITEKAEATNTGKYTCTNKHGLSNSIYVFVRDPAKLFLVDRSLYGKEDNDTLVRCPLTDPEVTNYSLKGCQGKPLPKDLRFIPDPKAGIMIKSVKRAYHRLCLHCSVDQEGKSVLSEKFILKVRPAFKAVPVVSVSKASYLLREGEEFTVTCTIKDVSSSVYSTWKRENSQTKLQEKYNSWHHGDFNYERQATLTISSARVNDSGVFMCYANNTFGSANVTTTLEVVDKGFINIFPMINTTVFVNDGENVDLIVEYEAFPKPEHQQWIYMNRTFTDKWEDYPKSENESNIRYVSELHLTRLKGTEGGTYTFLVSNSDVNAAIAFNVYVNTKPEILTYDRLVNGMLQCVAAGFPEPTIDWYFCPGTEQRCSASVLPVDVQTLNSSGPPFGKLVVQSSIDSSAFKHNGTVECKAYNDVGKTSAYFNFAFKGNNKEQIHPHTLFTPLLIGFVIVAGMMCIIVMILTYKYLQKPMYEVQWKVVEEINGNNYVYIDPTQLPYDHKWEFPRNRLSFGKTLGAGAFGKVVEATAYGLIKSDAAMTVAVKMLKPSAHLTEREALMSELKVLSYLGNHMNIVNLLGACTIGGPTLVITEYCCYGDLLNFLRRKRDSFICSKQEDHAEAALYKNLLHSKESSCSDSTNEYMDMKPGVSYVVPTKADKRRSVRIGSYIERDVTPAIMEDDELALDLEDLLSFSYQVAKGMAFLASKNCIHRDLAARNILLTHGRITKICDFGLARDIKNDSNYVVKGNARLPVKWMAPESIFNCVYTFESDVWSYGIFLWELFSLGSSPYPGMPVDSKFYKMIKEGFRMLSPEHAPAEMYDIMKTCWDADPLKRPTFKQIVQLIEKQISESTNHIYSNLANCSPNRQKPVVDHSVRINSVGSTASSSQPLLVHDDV
The next series addresses Src (Homo sapiens, UniProt P12931). As to the kind of experiment: Kinase activity assay, Src.
The target of the next series is T1, TEC (Homo sapiens, UniProt P42680).
T1 sequence (P42680 1-631): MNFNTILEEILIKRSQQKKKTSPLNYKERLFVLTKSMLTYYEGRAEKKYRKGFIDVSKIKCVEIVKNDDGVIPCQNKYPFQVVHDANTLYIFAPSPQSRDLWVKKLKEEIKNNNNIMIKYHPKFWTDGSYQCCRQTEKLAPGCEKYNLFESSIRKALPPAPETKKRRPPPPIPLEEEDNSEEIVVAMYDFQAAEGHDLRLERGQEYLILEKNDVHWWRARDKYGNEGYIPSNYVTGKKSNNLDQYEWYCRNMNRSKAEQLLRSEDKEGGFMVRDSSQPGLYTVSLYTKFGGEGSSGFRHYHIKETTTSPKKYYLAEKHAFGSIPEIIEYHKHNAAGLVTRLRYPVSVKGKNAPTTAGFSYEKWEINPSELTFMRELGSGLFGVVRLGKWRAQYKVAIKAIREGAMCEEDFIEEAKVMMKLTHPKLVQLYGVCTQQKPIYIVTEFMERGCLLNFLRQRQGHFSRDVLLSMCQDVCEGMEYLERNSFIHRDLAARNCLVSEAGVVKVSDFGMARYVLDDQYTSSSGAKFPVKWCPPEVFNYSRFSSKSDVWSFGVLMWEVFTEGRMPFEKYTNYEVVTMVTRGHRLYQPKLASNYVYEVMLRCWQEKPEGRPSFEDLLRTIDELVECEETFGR
Nature of the series: Kinase activity assay, TEC.

The next series addresses C-Raf (Homo sapiens, UniProt P04049). Nature of the series: Kinase activity assay, C-Raf.
A further series has as its target PI3Kα (Homo sapiens, UniProt P42336). Nature of the series: Kinase activity assay, PI3Kα.
In a further series the target is MAP4K4 (Homo sapiens, UniProt O95819). Nature of the series: Kinase activity assay, MAP4K4.
[2] abbreviates: Table 5B, forms of P-1021, dog, dose 150 mg/dog, 10 kg weight assumed.
Setting [3] is: test articles are solid forms of P-1021, dog, oral, 100 mg/dog, calculated assuming a 10 kg weight.

As usually defined, the IC50 is the concentration that inhibits the measured activity by half.

Src, sequence (P12931 whole entry): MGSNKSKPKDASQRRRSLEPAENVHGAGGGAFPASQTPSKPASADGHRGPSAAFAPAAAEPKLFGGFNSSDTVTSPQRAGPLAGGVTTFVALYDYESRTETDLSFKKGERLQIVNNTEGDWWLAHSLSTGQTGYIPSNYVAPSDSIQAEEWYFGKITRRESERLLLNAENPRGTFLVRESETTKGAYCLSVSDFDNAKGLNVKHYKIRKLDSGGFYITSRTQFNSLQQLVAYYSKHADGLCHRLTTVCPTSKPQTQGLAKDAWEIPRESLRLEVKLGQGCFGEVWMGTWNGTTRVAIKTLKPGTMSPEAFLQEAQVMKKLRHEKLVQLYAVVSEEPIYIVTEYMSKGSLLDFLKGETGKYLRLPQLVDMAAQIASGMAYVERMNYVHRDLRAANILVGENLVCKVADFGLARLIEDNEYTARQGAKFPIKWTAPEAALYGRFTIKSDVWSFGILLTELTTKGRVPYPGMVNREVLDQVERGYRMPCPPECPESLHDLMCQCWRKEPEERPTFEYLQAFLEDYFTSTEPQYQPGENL
C-Raf, sequence (P04049 whole entry): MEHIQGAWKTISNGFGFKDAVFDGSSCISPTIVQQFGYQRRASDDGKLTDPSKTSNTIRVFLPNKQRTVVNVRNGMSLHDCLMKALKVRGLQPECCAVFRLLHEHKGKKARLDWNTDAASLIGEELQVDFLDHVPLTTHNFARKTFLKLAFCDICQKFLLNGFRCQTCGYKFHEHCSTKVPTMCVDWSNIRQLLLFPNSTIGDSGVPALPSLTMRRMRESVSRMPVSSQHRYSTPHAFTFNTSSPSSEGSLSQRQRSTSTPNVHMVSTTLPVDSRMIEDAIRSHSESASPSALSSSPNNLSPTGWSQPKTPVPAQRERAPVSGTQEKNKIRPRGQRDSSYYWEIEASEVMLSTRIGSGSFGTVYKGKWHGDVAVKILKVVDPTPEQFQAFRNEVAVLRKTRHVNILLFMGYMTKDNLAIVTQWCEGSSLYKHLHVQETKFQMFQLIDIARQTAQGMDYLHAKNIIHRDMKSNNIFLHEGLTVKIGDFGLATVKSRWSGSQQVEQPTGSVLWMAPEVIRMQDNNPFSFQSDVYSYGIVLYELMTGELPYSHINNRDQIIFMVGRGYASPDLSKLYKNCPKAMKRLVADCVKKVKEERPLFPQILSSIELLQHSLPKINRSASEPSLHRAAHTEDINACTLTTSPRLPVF

Regarding `O=C(c1c(F)ccc(NS(=O)(=O)c2ccc(C(F)(F)F)cc2)c1F)c1c[nH]c2ncc(Cl)cc12` [Amorphous free base, N-[3-(5-chloro-1H-pyrrolo[2,3-b]pyridine-3-carbonyl)-2,4-difluoro-phenyl]-4-trifluoromethyl-benzenesulfonamide], in [1] (setting [2]), the “AUC∞/dose” value is 482 (ng*hr/mL)/(mg/kg) and the Cmax/dose was 33 (ng/mL)/(mg/kg).

For the compound `O=C(c1c(F)ccc(NS(=O)(=O)c2ccc(C(F)(F)F)cc2)c1F)c1c[nH]c2ncc(Cl)cc12` [Free base, N-[3-(5-chloro-1H-pyrrolo[2,3-b]pyridine-3-carbonyl)-2,4-difluoro-phenyl]-4-trifluoromethyl-benzenesulfonamide], in series [1] (setting [2]), the “AUC∞/dose” value is reported as 5,270 (ng*hr/mL)/(mg/kg) and the Cmax/dose is listed as 482 (ng/mL)/(mg/kg). In [1] (setting [3]), the “AUC∞/dose” value is recorded as 8,031 (ng*hr/mL)/(mg/kg) and the Cmax/dose is listed as 581.3 (ng/mL)/(mg/kg).

With `O=C(c1c(F)ccc(NS(=O)(=O)c2ccc(C(F)(F)F)cc2)c1F)c1c[nH]c2ncc(Cl)cc12` [Mesylate, N-[3-(5-chloro-1H-pyrrolo[2,3-b]pyridine-3-carbonyl)-2,4-difluoro-phenyl]-4-trifluoromethyl-benzenesulfonamide], in series [1] (setting [2]), the “AUC∞/dose” value was 2,849 (ng*hr/mL)/(mg/kg) and the Cmax/dose was 116 (ng/mL)/(mg/kg).

For `COc1ncc(-c2cnc3[nH]cc(C(=O)c4c(F)ccc(NS(=O)(=O)c5c(F)cccc5F)c4F)c3c2)cn1` [P-2043, N-{2,4-Difluoro-3-[5-(2-methoxy-pyrimidin-5-yl)-1H-pyrrolo[2,3-b]pyridine-3-carbonyl]-phenyl}-2,6-difluoro-benzenesulfonamide], the IC50 at B-Raf, at B-Raf V600E, against Btk, against Fms, against Kdr and at Kit was not above 10 µM in each case. Also, the IC50 against Src, on TEC, at C-Raf and against PI3Kα was not above 10 µM each time.

Turning to `COc1ncc(-c2cnc3[nH]cc(C(=O)c4c(F)ccc(NS(=O)(=O)c5ccc(F)cc5F)c4F)c3c2)cn1` [P-2044, N-{2,4-Difluoro-3-[5-(2-methoxy-pyrimidin-5-yl)-1H-pyrrolo[2,3-b]pyridine-3-carbonyl]-phenyl}-2,4-difluoro-benzenesulfonamide], the IC50 at B-Raf, at B-Raf V600E, against Btk, at Fms, at Kdr and against Kit was not above 10 µM each time. The half-maximal inhibitory concentration (IC50) on Src, on TEC, against C-Raf and at PI3Kα was not above 10 µM in each case.

With `CS(=O)(=O)Nc1cccc(-c2cnc3[nH]cc(C(=O)c4cc(NS(=O)(=O)c5cccnc5)ccc4F)c3c2)c1` [P-2139, Pyridine-3-sulfonic acid {4-fluoro-3-[5-(3-methanesulfonylamino-phenyl)-1H-pyrrolo[2,3-b]pyridine-3-carbonyl]-phenyl}-amide], the IC50 at B-Raf, on B-Raf V600E, against Btk, on Fms, on Kdr and on Kit was not above 10 µM in each case. In addition, the concentration for half-maximal inhibition (IC50) at Src, at TEC, on C-Raf, at PI3Kα and on MAP4K4 was not above 10 µM each time.

Take `CS(=O)(=O)Nc1cccc(-c2cnc3[nH]cc(C(=O)c4cccc(NS(=O)(=O)c5cccnc5)c4)c3c2)c1` [P-2145, Pyridine-3-sulfonic acid {3-[5-(3-methanesulfonylamino-phenyl)-1H-pyrrolo[2,3-b]pyridine-3-carbonyl]-phenyl}-amide]: the IC50 at B-Raf, at Btk, against Fms, at Kdr, on Kit and on Src was not above 10 µM in each case. Also, the IC50 against TEC, on PI3Kα and on MAP4K4 was not above 10 µM in each case.

For `COc1ncc(-c2cnc3[nH]cc(C(=O)c4c(F)ccc(NS(=O)(=O)CC(C)C)c4F)c3c2)cn1` [P-2322, 2-Methyl-propane-1-sulfonic acid {2,4-difluoro-3-[5-(2-methoxy-pyrimidin-5-yl)-1H-pyrrolo[2,3-b]pyridine-3-carbonyl]-phenyl}-amide], the IC50 on B-Raf, on B-Raf V600E, against Btk, on Fms, at Kdr and at Kit was not above 10 µM each time. The IC50 on Src, against TEC, on C-Raf and against PI3Kα was not above 10 µM throughout.

`COc1ncc(-c2cnc3[nH]cc(C(=O)c4c(F)ccc(NS(=O)(=O)C5CCCCC5)c4F)c3c2)cn1` [P-2371, Cyclohexanesulfonic acid {2,4-difluoro-3-[5-(2-methoxy-pyrimidin-5-yl)-1H-pyrrolo[2,3-b]pyridine-3-carbonyl]-phenyl}-amide]: the concentration for half-maximal inhibition (IC50) on B-Raf, on B-Raf V600E, against Btk, at Fms, against Kdr and on Kit was not above 10 µM in each case. Further, the IC50 on Src, on TEC, on C-Raf and against PI3Kα was not above 10 µM throughout.
